Measured values reported in patent US8324216B2, “Substituted piperazines” (Chemocentryx, Inc., priority 2002, dated 2012).

What was measured:
[1] = tested on: LPS induced synovial inflammation in rabbit knee; test: Rabbit model of destructive joint inflammation (intra-articular LPS); format: in vivo, female New Zealand rabbits; details: for synovium inflammation score: 16 h, score 1 minimal, 2 mild, 3 moderate, 4 moderate-marked, vehicle 3
Excerpt: This study design mimics the destructive joint inflammation seen in arthritis. Intra-articular injection of LPS causes an acute inflammatory response characterized by the release of cytokines and chemokines, many of which have been identified in rheumatoid arthritic joints. Marked increases in leukocytes occur in synovial fluid and in synovium in response to elevation of these chemotactic mediators. Selective antagonists of chemokine receptors have shown efficacy in this model (see Podolin, et al., J. Immunol. 169(11):6435-6444 (2002)).
Sixteen hours after the LPS injection, knees were lavaged and cells counts performed. Beneficial effects of treatment were determined by histopathologic evaluation of synovial inflammation. The following inflammation scores were used for the histopathologic evaluation: 1—minimal, 2—mild, 3—moderate, 4—moderate-marked.

[2] = tested on: arthritis induced clinical ankle swelling; test: Rat model of collagen induced arthritis (17 day developing type II collagen arthritis); format: in vivo, female Lewis rats; details: 25 mg/kg sub-cutaneous daily day 0 till day 17
Procedure: A 17 day developing type II collagen arthritis study was conducted to evaluate the effects of compound 1.028 on arthritis induced clinical ankle swelling. Rat collagen arthritis is an experimental model of polyarthritis that has been widely used for preclinical testing of numerous anti-arthritic agents (see Trentham, et al., J. Exp. Med. 146(3):857-868 (1977), Bendele, et al., Toxicologic Pathol. 27:134-142 (1999), Bendele, et al., Arthritis Rheum. 42:498-506 (1999)). The hallmarks of this model are reliable onset and progression of robust, easily measurable polyarticular inflammation, marked cartilage destruction in association with pannus formation and mild to moderate bone resorption and periosteal bone proliferation. Female Lewis rats (approximately 0.2 kilograms) were anesthetized with isoflurane and injected with Freund's Incomplete Adjuvant containing 2 mg/mL bovine type II collagen at the base of the tail and two sites on the back on days 0 and 6 of this 17 day study. Compound 1.028 was dosed daily in a sub-cutaneous manner from day 0 till day 17 at a dose of 25 mg/kg and a volume of 1 mL/kg in the following vehicle (20% N,N-dimethylacetamide, 75% corn oil, 5% Tween-80). Caliper measurements of the ankle joint diameter were taken, and reducing joint swelling was taken as a measure of efficacy.

| Compound | synovium inflammation score ([1]; dose 1=50 μM intra-articular with LPS 10 ng) | synovium inflammation score ([1]; dose 2=100 μM intra-articular with LPS 10 ng) | Inhibition of the inflammatory response ([1]; rabbit LPS intra-articular model) | Inhibition of arthritis induced ankle swelling [2] | change in joint diameter day9-day17 ([2]; vehicle 15.7% +/− 2.0%, normal 0% +/− 0.3%) [% +/− 1.8%] |
| --- | --- | --- | --- | --- | --- |
| Cc1c(Cl)c(C(F)(F)F)nn1CC(=O)N1CCN(c2ccc(F)cc2)CC1 [CCX-105] | 2 | 1 | significantly and specifically inhibit the inflammatory response | – | – |
| COc1cc(N2CCN(C(=O)Cn3nc(C(F)(F)F)c(Cl)c3C)CC2)c(Cl)cc1Cl [Compound 1.028] | – | – | – | significantly and specifically inhibit the arthritis induced ankle swelling | 9.1 |
